The target in the test is T1, human hNET (Homo sapiens, UniProt P23975).
T1 construct: expressed in transfected cells; host or cells: MDCK-Net6 (MDCK cells, stably transfected)
As to the kind of experiment: Norepinephrine (NE) uptake assay in MDCK-Net6 cells. The class given is cell-based. Particulars: [3H]NE uptake; for inhibition at 10 µM: 10 μM test compound (stated in the cell); for inhibition at 1 µM: 1 μM test compound, read-out: % Inhibition @ 1 μM (hNET). An outline of the steps: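 Radiolabelled NE uptake was counted by scintillation after NaOH lysis, with 1 µM desipramine defining non-specific uptake. EC50 came from a logistic dose-response fit.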

SMILES strings stand for the structures. Structures can show the parent of a compound that is named as a salt.

The term inhibition denotes the change of the read-out against control, counted positive when it falls.

T1 sequence (P23975 whole entry): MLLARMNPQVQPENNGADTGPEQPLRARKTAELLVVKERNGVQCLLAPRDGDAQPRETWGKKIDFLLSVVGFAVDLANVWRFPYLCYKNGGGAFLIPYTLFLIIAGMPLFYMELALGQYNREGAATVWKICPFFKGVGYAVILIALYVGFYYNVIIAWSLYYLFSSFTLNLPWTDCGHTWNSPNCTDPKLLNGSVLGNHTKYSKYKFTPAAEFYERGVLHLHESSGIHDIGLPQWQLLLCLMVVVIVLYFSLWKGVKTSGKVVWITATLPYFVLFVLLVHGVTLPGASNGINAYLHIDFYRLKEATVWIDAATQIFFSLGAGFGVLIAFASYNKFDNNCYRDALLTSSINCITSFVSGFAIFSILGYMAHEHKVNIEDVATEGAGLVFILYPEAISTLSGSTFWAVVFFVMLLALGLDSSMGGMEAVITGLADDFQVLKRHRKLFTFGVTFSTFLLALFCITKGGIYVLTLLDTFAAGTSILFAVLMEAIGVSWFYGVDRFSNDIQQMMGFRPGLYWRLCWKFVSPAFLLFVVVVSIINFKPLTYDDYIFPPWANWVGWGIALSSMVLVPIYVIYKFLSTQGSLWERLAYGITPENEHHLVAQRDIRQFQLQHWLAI

As for `CN1CCN(CC(c2ccc(-c3cccc(OC(F)(F)F)c3)cc2)C2(O)CCC2)CC1` (stereo not shown) [Example 295, 1-{2-(4-methylpiperazin-1-yl)-1-[3′-(trifluoromethoxy)-1,1′-biphenyl-4-yl]ethyl}cyclobutanol dihydrochloride], the inhibition at 10 µM is 2%. Take `CN1CCN(CC(c2ccc(-c3ccc(Cl)c(Cl)c3)cc2)C2(O)CCC2)CC1` (stereo not shown) [Example 296, 1-[1-(3′,4′-dichloro-1,1′-biphenyl-4-yl)-2-(4-methylpiperazin-1-yl)ethyl]cyclobutanol dihydrochloride]: the inhibition at 1 µM came to 13%. On the same count and under the same terms, then `CN1CCN(CC(c2ccc(-c3cc(Cl)cc(Cl)c3)cc2)C2(O)CCC2)CC1` (stereo not shown) [Example 297, 1-[1-(3′,5′-dichloro-1,1′-biphenyl-4-yl)-2-(4-methylpiperazin-1-yl)ethyl]cyclobutanol dihydrochloride], with 4%; and `C#Cc1cccc(C(CN2CCNCC2)C2(O)CCCCC2)c1` (stereo not shown) [Example 298, 1-[1-(3-ethynylphenyl)-2-piperazin-1-ylethyl]cyclohexanol dihydrochloride], with 91%; and `C#Cc1cccc(C(CN2CCN(C)CC2)C2(O)CCCCC2)c1` (stereo not shown) [Example 299, 1-[1-(3-ethynylphenyl)-2-(4-methylpiperazin-1-yl)ethyl]cyclohexanol dihydrochloride], with 95%. The same measure, in the same setting: under `CC#Cc1cccc(C(CN2CCNCC2)C2(O)CCCCC2)c1` (stereo not shown) [Example 300, 1-[2-piperazin-1-yl-1-(3-prop-1-ynylphenyl)ethyl]cyclohexanol dihydrochloride] stands 38%; under `CC#Cc1cccc(C(CN2CCN(C)CC2)C2(O)CCCCC2)c1` (stereo not shown) [Example 301, 1-[2-(4-methylpiperazin-1-yl)-1-(3-prop-1-ynylphenyl)ethyl]cyclohexanol dihydrochloride], 23%.

For the molecule `OC1(C(CN2CCCN(Cc3ccccc3)CC2)c2ccc(OC(F)(F)F)cc2)CCCCC1` (stereo not shown) [Example 302, 1-{2-(4-benzyl-1,4-diazepan-1-yl)-1-[4(trifluoromethoxy)phenyl]ethyl}cyclohexanol dihydrochloride], the inhibition at 1 µM was determined as 50%. For `OC1(C(CN2CCNCC2)c2ccc(OC(F)(F)F)cc2)CCC1` (stereo not shown) [Example 304, 1-{2-piperazin-1-yl-1-[4-(trifluoromethoxy)phenyl]ethyl}cyclobutanol dihydrochloride], the inhibition at 1 µM amounted to 41%.

For `OC1(C(CN2CCNCC2)c2ccc(Oc3ccccc3)cc2)CCCCC1` (stereo not shown) [Example 307, 1-[1-(4-phenoxyphenyl)-2-piperazin-1-ylethyl]cyclohexanol dihydrochloride], 10 µM produced 44.5% inhibition.

`CN1CCN(CC(c2ccc(Oc3ccccc3)cc2)C2(O)CCCCC2)CC1` (stereo not shown) [Example 308, 1-[2-(4-methylpiperazin-1-yl)-1-(4-phenoxyphenyl)ethy]cyclohexanol dihydrochloride] gave an inhibition at 10 µM of 35.9%. As for `OC1(C(CN2CCN(CC3CCCCC3)CC2)c2ccc(Oc3ccccc3)cc2)CCCCC1` (stereo not shown) [Example 309, 1-[2-[4-(cyclohexylmethyl)piperazin-1-yl]-1-(4-phenoxyphenyl)ethyl]cyclohexanol dihydrochloride], the inhibition at 1 µM came out at 19.7%. The same measure, in the same setting: under `OC1(C(CN2CCNCC2)c2cccc(Oc3ccccc3)c2)CCCCC1` (stereo not shown) [Example 311, 1-[1-(3-phenoxyphenyl)-2-piperazin-1-ylethy]cyclohexanol dihydrochloride] stands 86.2%.

Regarding `CN1CCN(CC(c2cccc(Oc3ccccc3)c2)C2(O)CCCCC2)CC1` (stereo not shown) [Example 312, 1-[2-(4-methylpiperazin-1-yl)-1-(3-phenoxyphenyl)ethy]cyclohexanol dihydrochloride], the inhibition at 1 µM came to 57.3%. Regarding `OC1(C(CN2CCN(CC3CCCCC3)CC2)c2cccc(Oc3ccccc3)c2)CCCCC1` (stereo not shown) [Example 313, 1-[2-[4-(cyclohexylmethyl)piperazin-1-yl]-1-(3-phenoxyphenyl)ethyl]cyclohexanol dihydrochloride], the inhibition at 1 µM stood at 57.3%.

Consider `CN1CCN(CC(c2ccc(OCc3ccccc3)cc2)C2(O)CCCCC2)CC1` (stereo not shown) [Example 322, 1-[2-(4-Methyl-1-piperazinyl)-1-[4-phenylmethoxy)phenyl]ethyl]cyclohexanol dihydrochloride], for which the inhibition at 1 µM stood at 97.2%. Still for that read-out and setting: under `OC1([C@@H](CN2CCNCC2)c2ccc(OCc3ccccc3)c(Cl)c2)CCCCC1` [Example 323, 1-{(1R)-1-[4-(benzyloxy)-3-chlorophenyl]-2-piperazin-1-ylethyl}cyclohexanol dihydrochloride] stands 95.8%; under `OC1([C@H](CN2CCNCC2)c2ccc(OCc3ccccc3)c(Cl)c2)CCCCC1` [Example 324, 1-{(1S)-1-[4-(benzyloxy)-3-chlorophenyl]-2-piperazin-1-ylethyl}cyclohexanol dihydrochloride], 98.4%; under `CN1CCN(C[C@@H](c2ccc(OCc3ccccc3)c(Cl)c2)C2(O)CCCCC2)CC1` [Example 325, 1-[(1R)-1-[4-(benzyloxy)-3-chlorophenyl]-2-(4-methylpiperazin-1-yl)ethyl]cyclohexanol dihydrochloride], 93.9%. In the case of `CN1CCN(C[C@H](c2ccc(OCc3ccccc3)c(Cl)c2)C2(O)CCCCC2)CC1` [Example 326, 1-[(1S)-1-[4-(benzyloxy)-3-chlorophenyl]-2-(4-methylpiperazin-1-yl)ethyl]cyclohexanol dihydrochloride], the inhibition at 1 µM amounted to 99.7%.

Turning to `CC(CCN1CCN(C[C@H](c2cccc(OC(F)(F)F)c2)C2(O)CCCCC2)CC1)c1ccccc1` (stereo partly drawn) [Example 347, 1-{(1S)-2-[4-(3-phenylbutyl)piperazin-1-yl]-1-[3-(trifluoromethoxy)phenyl]ethyl}cyclohexanol dihydrochloride], the inhibition at 1 µM stood at 92%. The same measure, in the same setting: then `C[C@H]1CN(C[C@H](c2cccc(OC(F)(F)F)c2)C2(O)CCCCC2)CCN1` [Example 348, 1-{(1S)-2-[(3S)-3-methylpiperazin-1-yl]-1-[3-(trifluoromethoxy)phenyl]ethyl}cyclohexanol dihydrochloride], with 91%; and `C[C@H]1CN(C[C@H](c2cccc(OC(F)(F)F)c2)C2(O)CCCCC2)CCN1C` [Example 349, 1-{(1S)-2-[(3S)-3,4-dimethylpiperazin-1-yl]-1-[3-(trifluoromethoxy)phenyl]ethyl}cyclohexanol dihydrochloride], with 82%. As for `CCC1CN(C[C@H](c2cccc(OC(F)(F)F)c2)C2(O)CCCCC2)CCN1` (stereo partly drawn) [Example 350, 1-{(1S)-2-(3-ethylpiperazin-1-yl)-1-[3-(trifluoromethoxy)phenyl]ethyl}cyclohexanol dihydrochloride], the inhibition at 1 µM amounted to 79%. On the same count and under the same terms, under `CC[C@H]1CN(C[C@H](c2cccc(OC(F)(F)F)c2)C2(O)CCCCC2)CCN1C` [Example 351, 1-{(1S)-2-[(3S)-3-ethyl-4-methylpiperazin-1-yl]-1-[3-(trifluoromethoxy)phenyl]ethyl}cyclohexanol dihydrochloride] stands 61%. As to `CC[C@@H]1CN(C[C@H](c2cccc(OC(F)(F)F)c2)C2(O)CCCCC2)CCN1C` [Example 352, 1-{(1S)-2-[(3R)-3-ethyl-4-methylpiperazin-1-yl]-1-[3-(trifluoromethoxy)phenyl]ethyl}cyclohexanol dihydrochloride], the inhibition at 1 µM was 68%. The same measure, in the same setting: then `CC(C)N1CCN(CC(c2cccc(OC(F)(F)F)c2)C2(O)CCCCC2)CC1` (stereo not shown) [Example 362, 1-{2-(4-isopropylpiperazin-1-yl)-1-[3-(trifluoromethoxy)phenyl]ethyl}cyclohexanol dihydrochloride], with 51%; and `C[C@@H](c1ccccc1)N1CCN(C[C@H](c2cccc(OC(F)(F)F)c2)C2(O)CCCCC2)CC1` [Example 363, 1-{(1S)-2-{4-[(1S)-1-phenylethyl]piperazin-1-yl}-1-[3-(trifluoromethoxy)phenyl]ethyl}cyclohexanol dihydrochloride], with 42%; and `C[C@@H]1CN(C[C@H](c2cccc(OC(F)(F)F)c2)C2(O)CCCCC2)C[C@H](C)N1` [Example 367, 1-{(1S)-2-[(3R,5S)-3,5-dimethylpiperazin-1-yl]-1-[3-(trifluoromethoxy)phenyl]ethyl}cyclohexanol dihydrochloride], with 94%. On the same count and under the same terms, then `C[C@@H]1CN(C[C@H](c2cccc(OC(F)(F)F)c2)C2(O)CCCCC2)C[C@H](C)N1C` [Example 368, 1-{(1S)-1-[3-(trifluoromethoxy)phenyl]-2-[(3R,5S)-3,4,5-trimethylpiperazin-1-yl]ethyl}cyclohexanol dihydrochloride], with 93%; and `C[C@@H]1CN(C[C@H](c2cccc(OC(F)(F)F)c2)C2(O)CCCCC2)CCN1` [Example 369, 1-{(1S)-2-[(3R)-3-methylpiperazin-1-yl]-1-[3-(trifluoromethoxy)phenyl]ethyl}cyclohexanol dihydrochloride], with 90%. Same read-out and setting: under `C[C@@H]1CN(C[C@H](c2cccc(OC(F)(F)F)c2)C2(O)CCCCC2)CCN1C` [Example 370, 1-{(1S)-2-[(3R)-3,4-dimethylpiperazin-1-yl]-1-[3-(trifluoromethoxy)phenyl]ethyl}cyclohexanol dihydrochloride] stands 79%; under `OC1([C@H](CN2CCN3CCCCC3C2)c2cccc(OC(F)(F)F)c2)CCCCC1` (stereo partly drawn) [Example 371, 1-{(1S)-2-(octahydro-2H-pyrido[1,2-a]pyrazin-2-yl)-1-[3-(trifluoromethoxy)phenyl]ethyl}cyclohexanol dihydrochloride], 78%; under `CC(C)(CO)N1CCN(CC(c2cccc(OC(F)(F)F)c2)C2(O)CCCCC2)CC1` (stereo not shown) [Example 373, 1-{2-[4-(2-hydroxy-1,1-dimethylethyl)piperazin-1-yl]-1-[3-(trifluoromethoxy)phenyl]ethyl}cyclohexanol dihydrochloride], 90%.

For the origin of these results see patent US7550456B2, “Substituted aryl cycloalkanoyl derivatives and methods of their use” (Wyeth, priority 2003, dated 2009).
